This note sets out measurements from patent US20260069693A1, “UROLITHINS AND T-CELL MEDIATED IMMUNE RESPONSE” (priority 2022, published 2026).

This experiment relates to APTK-OVA tumors. As to the kind of experiment: adoptive transfer of UA-conditioned OT-1 T cells into mice bearing APTK-OVA tumors. The experiment is classed as in vivo, Rag1^−/− mice. From the text:
Adoptive cell transfer (ACT) represents the infusion of antigen-specific leukocytes with direct antitumor activity, yet identification, selection and expansion of lymphocyte subsets harboring optimal antitumor qualities remains one of the most crucial challenges (Rosenberg and Restifo, 2015). ACT benefits especially from minimally differentiated cells due to their improved survival and long-term potential to generate unexhausted effector cells (Luca Gattinoni et al; Mo et al., 2021; Roberto et al., 2015). In particular, CD8^+ T cells restricted in a stem-like state have been associated with enhanced tumor suppressive properties upon adoptive cell transfer (Enrico Lugli et al; Verma et al., 2021). […] The inventors cultured T cells from OT-1 donor mice (FIG. 3A) for 48 hours in the presence of UA or vehicle control, followed by adoptive transfer into immunodeficient Rag1^−/− mice. […] Moreover, consistent with an improved memory response, animals receiving UA-pretreated T cells contained less Tim3^HiPD1^Hi terminally exhausted CD8^+ T cells in the TME (FIG. 3I). Thus, UA augments immune-mediated antitumor memory upon adoptive cell transfer.
For adoptive cell transfer transfer, purified splenic T cell from OT1 mice were isolated and activated using aCD3/aCD28 stimulation beads for 48 h. After magnetic bead removal, 1×10^6 T of activated T cell were intravenously injected into Rag1^−/− recipients. To study survival of transferred T cells, stimulated OT-1 T cells were injected into mice without tumors. Subsequently, after 7 days, spleens were isolated and splenocytes were stained for the CD8^+ subsets as described below. To understand antitumor immunity conferred by transferred OT-1 lymphocytes, cells were injected into mice carrying APTK-OVA tumors 10 days after subcutaneous organoid transplantation. Tumor growth was assessed as described above. Mice were kept under regular chow food for the T cell adoptive transfer experiment and sacrificed collectively when maximum tumor diameter extended 1.5 cm.
Tumors were minced and digested with Tumor & Tissue Dissociation Reagent (BD Horizon) for 30 min. The remaining organ pieces were filtered through a 70 μm cell strainer. Cells were then washed with PBS 1% BSA and 2 mM EDTA. Immune cells were enriched on a 30%/40%/75% Percoll gradient after a 1700 rpm 17 min centrifugation. […]

Setting [1] is: UA-T cell transfer vs DMSO treated OT-I T cells.

Turning to `O=c1oc2cc(O)ccc2c2ccc(O)cc12` [UA, Urolithin A], under setting [1], the “CD62L expression in CD8+ TIL” value is listed as “remained unchanged”, the “expression of CD44 in CD8+ TIL” value is “lower expression” and the “number of TCF1Hi CD8+ tumor infiltrating T cells” value is “higher number”. In addition, the “tumor suppression (growth, final tumor weight)” value (UA-conditioned (25 μM, 48 h) vs control OT-I T cells) is “more substantial tumor suppression”. In addition, under “UA-pretreated vs DMSO treated OT-I T cells”, the “Tim3HiPD1Hi terminally exhausted CD8+ T cells in the TME” value is “less”.
